Drawing on publication PMC10332459, “N-terminal lid swapping contributes to the substrate specificity and activity of thermophilic lipase TrLipE” (Frontiers in Microbiology, 2023), this text covers Km for four compounds.

Structures are written as SMILES.

Common to all, as to test: p-nitrophenol release at […] nm, non-linear fit
Holding throughout (format): biochemical, Thermomicrobium roseum

One test concerns T1, TrL7.
T1 construct: gene SshEstI; N-terminal lid Pro2-Lys45 of 4P9N fused to TrLipE Val54-Ala323; His-tagged, E. coli BL21, 35-37 kDa
The settings on record: 60 °C; Tris-HCl 50 mM pH 8.0; gum arabic and sodium deoxycholate emulsion; read-out: 4-Nitrophenyl laurate.

The subject of a further test is T2, TrL5.
T2 construct: N-terminal lid Asn23-Pro66 of 4C89 fused to TrLipE Val54-Ala323; His-tagged, E. coli BL21, 35-37 kDa
The note with it: 60 °C; Tris-HCl 50 mM pH 8.0; gum arabic and sodium deoxycholate emulsion; read-out: 4-Nitrophenyl laurate.

The subject of the next test is T3, TrL9.
T3 construct: gene Est8; N-terminal lid Ala2-Gly49 of 4YPV fused to TrLipE Val54-Ala323; His-tagged, E. coli BL21, 35-37 kDa
The settings on record: 60 °C; Tris-HCl 50 mM pH 8.0; gum arabic and sodium deoxycholate emulsion; read-out: 4-Nitrophenyl palmitate.

A further test deals with T4, TrL12.
T4 construct: gene TmelEST2; N-terminal lid Gln34-Glu74 of 5MIF fused to TrLipE Val54-Ala323; His-tagged, E. coli BL21, 35-37 kDa
The note with it: 60 °C; Tris-HCl 50 mM pH 8.0; gum arabic and sodium deoxycholate emulsion; read-out: 4-Nitrophenyl palmitate.

The test system of the next test is T5, TrL4.
T5 construct: gene LipW; N-terminal lid Val2-Gly53 of 3QH4 fused to TrLipE Val54-Ala323; His-tagged, E. coli BL21, 35-37 kDa
The settings on record: 60 °C; Tris-HCl 50 mM pH 8.0; gum arabic and sodium deoxycholate emulsion; read-out: 4-Nitrophenyl palmitate.

The next test deals with T6, TrL11.
T6 construct: gene E53; N-terminal lid Lys4-Gly69 of 5HC0 fused to TrLipE Val54-Ala323; His-tagged, E. coli BL21, 35-37 kDa
The settings on record: 60 °C; Tris-HCl 50 mM pH 8.0; gum arabic and sodium deoxycholate emulsion; read-out: 4-Nitrophenyl palmitate.

The next test concerns T7, TrL1.
T7 construct: gene EST2; N-terminal lid Leu3-Pro44 of 1EVQ fused to TrLipE Val54-Ala323; His-tagged, E. coli BL21, 35-37 kDa
The settings on record: 60 °C; Tris-HCl 50 mM pH 8.0; gum arabic and sodium deoxycholate emulsion; read-out: 4-Nitrophenyl palmitate.

For the next test, the system named is T8, TrL3.
T8 construct: gene EstE7; N-terminal lid Asp13-Gly57 of 3K6K fused to TrLipE Val54-Ala323; His-tagged, E. coli BL21, 35-37 kDa
The settings on record: 60 °C; Tris-HCl 50 mM pH 8.0; gum arabic and sodium deoxycholate emulsion; read-out: 4-Nitrophenyl benzoate.

The subject of the next test is T9, TrL17.
T9 construct: gene EstN7; N-terminal lid Lys2-Glu45 of 7B4Q fused to TrLipE Val54-Ala323; His-tagged, E. coli BL21, 35-37 kDa
The settings on record: 60 °C; Tris-HCl 50 mM pH 8.0; gum arabic and sodium deoxycholate emulsion; read-out: 4-Nitrophenyl benzoate.

The test system of the next test is T10, TrL18.
T10 construct: N-terminal lid Ala2-Glu45 of 7UAY fused to TrLipE Val54-Ala323; His-tagged, E. coli BL21, 35-37 kDa
The note with it: 60 °C; Tris-HCl 50 mM pH 8.0; gum arabic and sodium deoxycholate emulsion; read-out: 4-Nitrophenyl benzoate.

Another test has as its system T11, TrL2.
T11 construct: gene EstE5; N-terminal lid Ala2-Asp42 of 3H18 fused to TrLipE Val54-Ala323; His-tagged, E. coli BL21, 35-37 kDa
The settings on record: 60 °C; Tris-HCl 50 mM pH 8.0; gum arabic and sodium deoxycholate emulsion; read-out: 4-Nitrophenyl benzoate.

For another test, the system named is T12, TrL16.
T12 construct: gene PMGL3; N-terminal lid Asn2-Cys49 of 7B1X fused to TrLipE Val54-Ala323; His-tagged, E. coli BL21, 35-37 kDa
The note with it: 60 °C; Tris-HCl 50 mM pH 8.0; gum arabic and sodium deoxycholate emulsion; read-out: 4-Nitrophenyl decanoate.

The next test relates to T13, TrL8.
T13 construct: gene ThaEst2349; N-terminal lid Pro2-Asp49 of 4V2I fused to TrLipE Val54-Ala323; His-tagged, E. coli BL21, 35-37 kDa
The settings on record: 60 °C; Tris-HCl 50 mM pH 8.0; gum arabic and sodium deoxycholate emulsion; read-out: 4-Nitrophenyl decanoate.

As to `CCCCCCCCCCCC(=O)Oc1ccc([N+](=O)[O-])cc1` [4-Nitrophenyl laurate], the Km with TrL7 is 12.8 µM; with TrL5, 21.1 µM.

Take `CCCCCCCCCCCCCCCC(=O)Oc1ccc([N+](=O)[O-])cc1` [4-Nitrophenyl palmitate]: the Km with TrL9 stood at 23.2 µM; in the test on TrL12, 13.7 µM; with TrL4, 7.46 µM; in the test on TrL11, 77.4 µM; in the test with TrL1 it was 55.3 µM.

With `O=C(Oc1ccc([N+](=O)[O-])cc1)c1ccccc1` [4-Nitrophenyl benzoate], the Km was 37 µM in the test with TrL3, 60.2 µM in the test with TrL17, 44.9 µM in the test on TrL18 and 50 µM with TrL2.

On to `CCCCCCCCCC(=O)Oc1ccc([N+](=O)[O-])cc1` [4-Nitrophenyl decanoate], for which the Km in the test on TrL16 amounted to 44.7 µM; in the test with TrL8 it was 21.8 µM.
